# Experimental data published in patent publication US20040044037A1, “Amidino-urea serotonin receptor ligands and compositions, their pharmaceutical uses, and methods for their snythesis” (priority 2003, published 2004).
# Like-named read-outs stand apart in the source and are kept apart here.
# How the values were obtained:
# [1] = target: T1, human D2S dopamine (hD2S-DA) receptors (Homo sapiens, UniProt P14416); assay: Competition radioligand binding, hD2S dopamine
# T1 construct: purchased Receptor Biology, Inc. (Beltsville, Md.); host or cells: A9 L cells
# T1 sequence (P14416 1-414 isoform P14416-2): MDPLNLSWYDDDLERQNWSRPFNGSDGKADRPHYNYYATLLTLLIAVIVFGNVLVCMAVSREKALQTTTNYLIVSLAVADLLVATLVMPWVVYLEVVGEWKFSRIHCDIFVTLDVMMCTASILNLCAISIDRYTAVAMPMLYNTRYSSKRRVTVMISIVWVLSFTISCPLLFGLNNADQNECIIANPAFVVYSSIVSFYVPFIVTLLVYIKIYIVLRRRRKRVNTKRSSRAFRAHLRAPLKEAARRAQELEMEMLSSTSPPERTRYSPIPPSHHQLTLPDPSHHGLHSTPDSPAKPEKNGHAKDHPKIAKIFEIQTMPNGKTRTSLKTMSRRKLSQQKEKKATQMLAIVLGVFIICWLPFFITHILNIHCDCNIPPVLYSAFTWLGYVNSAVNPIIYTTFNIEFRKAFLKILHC
# human 5-HT1a receptors = target: T2, human 5-HT1a receptors (Homo sapiens, UniProt P08908); assay: Competition radioligand binding, h5-HT1a
# T2 construct: expressed in transfected cells; host or cells: CHO K1 cells
# T2 sequence (P08908 1-422): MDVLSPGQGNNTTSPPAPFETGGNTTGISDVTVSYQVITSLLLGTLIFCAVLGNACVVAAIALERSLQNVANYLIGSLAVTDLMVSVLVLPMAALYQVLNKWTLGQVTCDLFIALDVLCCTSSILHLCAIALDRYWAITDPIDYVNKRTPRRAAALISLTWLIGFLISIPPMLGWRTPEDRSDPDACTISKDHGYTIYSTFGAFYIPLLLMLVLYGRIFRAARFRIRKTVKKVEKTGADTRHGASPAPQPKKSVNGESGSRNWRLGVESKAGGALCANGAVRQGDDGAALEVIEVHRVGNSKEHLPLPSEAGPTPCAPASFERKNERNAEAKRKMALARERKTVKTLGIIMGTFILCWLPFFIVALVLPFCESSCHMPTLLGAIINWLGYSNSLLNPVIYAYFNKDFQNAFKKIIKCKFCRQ
# Description: (§1) Cells and Membrane Preparation: HEK 293 cells stably expressing human 5-HT7B (h5-HT7b) receptors were grown in Dulbecco's Modified Eagle's Medium (DMEM; Gibco) without sodium pyruvate and containing 4.5 g/L glucose, L-glutamine/penicillin-streptomycin (Gemini), 10% fetal bovine serum and 250 mg/l of the antibiotic, G418 (Geneticin) as previously described (Jasper, J. R., Kosaka, A., To, Z. P., Chang, D. J. and Eglen, R. M. (1997) Cloning, expression and pharmacology of a truncated splice variant of the human 5-ht7 receptor (h5-ht7b). Br. J. Pharmacol. 122(1):126-132.). Cell pellets were homogenized in approximately 50 mL of homogenization buffer (buffer A) containing: 50 mM Tris (pH 7.4), 2 mM EGTA, 0.32 M sucrose, 10 μM PMSF, 1 μg/mL leupeptin, 5 μg/mL Pepstatin A, and 5 μg/mL aprotinin using an UltraTurax homogenizer (Tekmar Company, Cincinnati, Ohio) at 80% maximum setting three times for 10 sec. Cell pellets were centrifuged at 4° C. at 1,500×g for 10 min in a Beckman GS-6R centrifuge. Pellets were resuspended in buffer A, homogenized and centrifuged as described above. Pooled supernatants were transferred to centrifuge bottles and centrifuged at 4° C. at 20,000×g for 30 min in a Beckman J2-HS centrifuge. Cell pellets were resuspended in buffer A and were centrifuged at 4° C. at 20,000×g for 30 min. Cell pellets were resuspended in buffer A and stored at −70° C. in aliquots of 2.5 mg/mL total membrane protein. Total membrane protein was assessed utilizing a BCA kit (Pierce; Rockford, Ill.). Membranes containing human 5-HT1a or 5HT2a receptors expressed in CHO K1 cells were prepared as described above.
# (§2) Radioligand Binding Assays: For 5-HT7 saturation binding experiments, HEK-293 cell membranes expressing h5-HT7 receptors (5-10 μg membrane protein/well) were incubated in duplicate with [^3H]5-CT (approximately 0.2 nM) in binding assay buffer containing: 50 mM HEPES (pH 7.4), 0.5 mM EDTA, 10 mM MgCl2, 10 μM pargyline to inhibit monoamine oxidase activity, and 0.1% sodium ascorbate, in a final volume of 200 μL in 96-well polypropylene plates for 2 hours at 37° C. Nonspecific binding was determined by incubating membranes with 1 μM 5-HT. All radioligand binding assays were stopped by rapid filtration onto 96-well GF/C filter plates (Packard) soaked in 0.1% polyethylenimine. Filters were washed three times with ice-cold phosphate-buffered saline (PBS) wash buffer containing 50 mM NaPO4 (pH 7.4), 0.9% NaCl, 2 mM MgCl2 and 0.02% NaN3. The filters were then counted using liquid scintillation in a Packard Topcount scintillation counter.
# (§3) Data Analysis: Radioligand binding experiments were analyzed with Prism™ (Graphpad, San Diego, Calif.), a computer graphics and statistics program. IC50 values and Hill slopes for compounds were generated by nonlinear regression using Prism™. Values for Ki calculated from IC50 values by the Cheng and Prussoff equation (Cheng, Y. and Prusoff, W. H., (1973), “Relationship between the inhibition constant (Ki) and the concentration of inhibitor which causes 50 per cent inhibition (I50) of an enzymatic reaction.” Biochemical Pharmacol. 22:3099-3108).
# human 5HT2a receptors = target: T3, human 5HT2a receptors (Homo sapiens, UniProt P28223); assay: Competition radioligand binding, 5-HT2A
# T3 construct: expressed in transfected cells; host or cells: CHO K1 cells
# T3 sequence (P28223 whole entry): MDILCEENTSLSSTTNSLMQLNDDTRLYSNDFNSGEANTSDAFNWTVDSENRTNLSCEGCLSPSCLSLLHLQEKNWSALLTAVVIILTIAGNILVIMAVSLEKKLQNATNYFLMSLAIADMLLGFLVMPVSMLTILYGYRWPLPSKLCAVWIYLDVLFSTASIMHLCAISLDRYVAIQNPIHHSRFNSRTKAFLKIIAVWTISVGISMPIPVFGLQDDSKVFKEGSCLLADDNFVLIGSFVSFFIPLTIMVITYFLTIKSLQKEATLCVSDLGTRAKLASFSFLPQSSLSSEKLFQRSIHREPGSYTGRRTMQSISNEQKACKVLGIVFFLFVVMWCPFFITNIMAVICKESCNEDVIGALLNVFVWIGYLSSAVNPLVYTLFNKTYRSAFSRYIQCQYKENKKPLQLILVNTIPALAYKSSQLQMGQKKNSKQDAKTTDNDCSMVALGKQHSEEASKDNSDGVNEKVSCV
# Description: as §1, §2, §3
# [2] = target: T4, human 5-HT6 (h5-HT6) receptors (Homo sapiens, UniProt P50406); assay: Competition radioligand binding, h5-HT6
# T4 construct: purchased Receptor Biology, Inc. (Beltsville, Md.); host or cells: HEK-293 cells
# T4 sequence (P50406 whole entry): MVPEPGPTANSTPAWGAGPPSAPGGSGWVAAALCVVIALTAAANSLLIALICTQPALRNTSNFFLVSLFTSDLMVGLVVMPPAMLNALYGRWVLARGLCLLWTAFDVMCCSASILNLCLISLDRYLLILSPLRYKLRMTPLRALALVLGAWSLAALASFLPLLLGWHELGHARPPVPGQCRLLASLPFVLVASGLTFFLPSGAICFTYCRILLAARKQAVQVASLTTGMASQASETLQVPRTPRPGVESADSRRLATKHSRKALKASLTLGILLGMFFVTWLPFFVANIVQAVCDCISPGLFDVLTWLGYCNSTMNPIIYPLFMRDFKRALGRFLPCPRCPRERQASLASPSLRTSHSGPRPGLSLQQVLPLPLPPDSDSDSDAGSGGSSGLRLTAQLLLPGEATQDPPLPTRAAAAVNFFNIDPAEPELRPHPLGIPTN
# [3] = target: T5, human 5-HT7B (h5-HT7b) receptors (Homo sapiens, UniProt P34969); assay: Competition radioligand binding, h5-HT7b
# T5 construct: expressed in transfected cells
# T5 sequence (P34969 1-432 limits assumed): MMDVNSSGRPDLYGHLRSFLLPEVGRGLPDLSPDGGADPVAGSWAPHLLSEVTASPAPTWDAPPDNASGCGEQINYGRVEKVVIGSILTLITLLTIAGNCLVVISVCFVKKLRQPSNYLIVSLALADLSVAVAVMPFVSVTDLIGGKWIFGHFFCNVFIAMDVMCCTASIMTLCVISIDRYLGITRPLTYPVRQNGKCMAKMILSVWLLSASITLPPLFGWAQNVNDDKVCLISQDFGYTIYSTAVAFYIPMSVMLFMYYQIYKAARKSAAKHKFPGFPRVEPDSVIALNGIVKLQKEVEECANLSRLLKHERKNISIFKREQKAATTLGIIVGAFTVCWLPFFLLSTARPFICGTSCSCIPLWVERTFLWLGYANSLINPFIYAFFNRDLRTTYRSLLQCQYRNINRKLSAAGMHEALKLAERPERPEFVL
# From the text: The compounds of the invention interact with 5-HT receptors and show selectivity for 5-HT receptors. The 5-HT receptor binding properties of the compounds are identified by competitive radioligand binding assays wherein membranes prepared from transfected cells expressing the 5-HT receptor subtype of interest. “Binding constants” refers herein to Ki values measured by inhibition of the binding of radiolabelled ligands that are selective for the 5-HT receptor type being studied. For 5-HT7 receptors, Ki values are determined by measuring the inhibition of 5-carboxamidotryptamine (5-CT) binding, wherein 5-HT7 receptors were incubated with the radiolabelled high affinity ligand, 5-carboxamidotryptamine ([^3H]5-CT), in the presence and absence of the compounds of the invention, at varying concentrations. The compounds of the invention have high binding affinity for serotonin receptors as measured by dissociation constant Ki. […] “Selectivity” for receptor type, in the context of this invention, refers to the ratio of binding constants for the two receptor types being compared. […] The compounds of the present invention preferably show selectivity for 5-HT7 receptors over other serotonin receptor subtypes of greater than about 100. The compounds of the present invention also preferably show selectivity for 5-HT7 receptors over other receptor types, such as dopamine D2, of greater than about 100.
# as §1
# as §2, with “counter. […]” for “counter.”
# [4] = [3H]Spiperone, membranes of A9 L cells, read-out: Ki D2
# [5] = [3H]5-CT, membranes of CHO K1 cells, read-out: Ki 5-HT1A
# [6] = [3H]Ketanserin, membranes of CHO K1 cells, read-out: Ki 5-HT2A
# [7] = [3H]LSD, membranes of HEK-293 cells, read-out: Ki 5-HT6
# [8] = [3H]5-CT, membranes of HEK 293 cells, read-out: Ki 5-HT7
SMILES,"Ki [1, 4]",Ki (human 5-HT1a receptors; [5]),Ki (human 5HT2a receptors; [6]),"Ki [2, 7]","Ki [3, 8]",Ki [1],Ki (human 5-HT1a receptors),Ki (human 5HT2a receptors),Ki [2],Ki [3]
"COc1ccccc1CN1CCN(C(=O)NC(=N)NCc2cccc3ccccc23)CC1 [Example 5, N-{[4-(2-Methoxybenzyl)-1-piperazinyl]carbonyl}-N′-(1-naphthylmethyl)guanidine]",2010 nM,2390 nM,46 nM,1960 nM,26 nM,,,,,
"N=C(NCc1cccc2ccccc12)NC(=O)NC1CCN(Cc2ccccc2)CC1 [Example 6, 1-Benzyl-4-{[({imino[(1-naphthylmethyl)amino]methyl}amino)carbonyl]amino}piperidine]",1050 nM,770 nM,13 nM,8630 nM,68 nM,,,,,
"N=C(NCc1cccc2ccccc12)NC(=O)N1CCN(Cc2ccccc2)CC1 [Example 7, N-[(4-Benzyl-1-piperazinyl)carbonyl]-N′-(1-naphthylmethyl)guanidine]",770 nM,1690 nM,43 nM,> 10000 nM,1.4 nM,,,,,
"N=C(NCc1cccc2ccccc12)NC(=O)N1CCC(C(N)=O)CC1 [Example 8, 1-[({imino[(1-naphthylmethyl)amino]methyl}amino)carbonyl]-4-piperidinecarboxamide]",> 2500 nM,> 4000 nM,40 nM,> 10000 nM,12 nM,,,,,
"COc1ccccc1N1CCN(C(=O)NC(=N)NCc2cccc3ccccc23)CC1 [Example 21, N-{[4-(2-Methoxyphenyl)-1-piperazinyl]carbonyl}-N′-(1-naphthylmethyl)guanidine]",900 nM,520 nM,150 nM,> 10000 nM,6 nM,,,,,
"N=C(NCc1cccc2ccccc12)NC(=O)N[C@H]1C[C@@H]2CC[C@H]1C2 [Example 23, 1-({[({[(1S,2S,4R)Bicyclo[2.2.1]hept-2-ylamino]carbonyl}amino) (imino)methyl]amino}methyl)naphthalene]",280 nM,220 nM,4 nM,1930 nM,9.7 nM,,,,,
"N=C(NCc1cccc2ccccc12)NC(=O)N1CCN(C/C=C/c2ccccc2)CC1 [Example 24, N-(1-Naphthylmethyl)-N′-({4-[(E)-3-phenyl-2-propenyl]-1-piperazinyl}carbonyl)guanidine]",820 nM,2620 nM,78 nM,1910 nM,3.2 nM,,,,,
"N=C(NCc1cccc2ccccc12)NC(=O)N1CCC(Nc2ccccc2)CC1 [Example 25, N-[(4-Anilino-1-piperidinyl)carbonyl]-N-(1-naphthylmethyl)guanidine]",,,,,,1470 nM,2590 nM,120 nM,> 10000 nM,7.4 nM
"N=C(NCc1cccc2ccccc12)NC(=O)N1CCC(Cc2ccccc2)CC1 [Example 29, N-[(4-Benzyl-1-piperidinyl)carbonyl]-N′-(1-naphthylmethyl)guanidine]",> 2500 nM,2690 nM,170 nM,> 10000 nM,16 nM,,,,,
N=C(NCc1cccc2ccccc12)NC(=O)N[C@@H](Cc1ccc(O)cc1)C(N)=O [Example 35],630 nM,> 4000 nM,0.92 nM,460 nM,5.1 nM,,,,,
"N=C(NCc1cccc2ccccc12)NC(=O)N1CCC2(CC1)C(=O)NCN2c1ccccc1 [Example 36, N-(1-Naphthylmethyl)-N′-[(4-oxo-1-phenyl-1,3,8-triazaspiro[4.5]dec-8yl)carbonyl]guanidine]",340 nM,580 nM,33 nM,740 nM,11 nM,,,,,
"N=C(NCc1cccc2ccccc12)NC(=O)NC1CCCc2ccccc21 (stereo not drawn) [Example 40, 1-{[({Imino[(1-naphthylmethyl)amino]methyl}amino)carbonyl]amino}-1,2,3,4-tetrahydronaphthalene]",1700 nM,540 nM,4.1 nM,590 nM,24 nM,,,,,
"N=C(NCc1cccc2ccccc12)NC(=O)NC[C@@H]1CCCC[C@@H]1O [Example 41, 1-({[([({[(1S,2S)2-Hydroxycyclohexyl]methyl}amino)carbonyl]amino}(imino)methyl]amino}methyl)naphthalene]",1070 nM,54 nM,2 nM,340 nM,8.9 nM,,,,,
"N=C(NCc1cccc2ccccc12)NC(=O)NC1CCc2ccccc21 (stereo not drawn) [Example 43, 1-({[{[(2,3-Dihydro-1H-inden-1-ylamino)carbonyl]amino}(imino)methyl]amino}methyl)naphthalene]",2190 nM,630 nM,4.8 nM,900 nM,22 nM,,,,,
"COc1ccccc1CN1CCC(CNC(=O)NC(=N)NCc2cccc3ccccc23)CC1 [Example 45, 4-({[({Imino[(1-naphthylmethyl)amino]methyl}amino)carbonyl]amino}methyl)-1-(2-methoxybenzyl)piperidine]",500 nM,600 nM,3.9 nM,1550 nM,21 nM,,,,,
